Drawing on patent US20140011799A1 (Bristol-Myers Squibb Company, priority 2012, published 2014), this text covers IC50 for 19 compounds.

The target of one test is T1, Endothelial lipase (EL) (Homo sapiens, UniProt Q9Y5X9).
T1 construct: HT-1080 cells that were transformed using RAGE technology (Athersys) to overexpress endogenous EL; endogenous in cells; conditioned medium used
T1 sequence (Q9Y5X9 21-500): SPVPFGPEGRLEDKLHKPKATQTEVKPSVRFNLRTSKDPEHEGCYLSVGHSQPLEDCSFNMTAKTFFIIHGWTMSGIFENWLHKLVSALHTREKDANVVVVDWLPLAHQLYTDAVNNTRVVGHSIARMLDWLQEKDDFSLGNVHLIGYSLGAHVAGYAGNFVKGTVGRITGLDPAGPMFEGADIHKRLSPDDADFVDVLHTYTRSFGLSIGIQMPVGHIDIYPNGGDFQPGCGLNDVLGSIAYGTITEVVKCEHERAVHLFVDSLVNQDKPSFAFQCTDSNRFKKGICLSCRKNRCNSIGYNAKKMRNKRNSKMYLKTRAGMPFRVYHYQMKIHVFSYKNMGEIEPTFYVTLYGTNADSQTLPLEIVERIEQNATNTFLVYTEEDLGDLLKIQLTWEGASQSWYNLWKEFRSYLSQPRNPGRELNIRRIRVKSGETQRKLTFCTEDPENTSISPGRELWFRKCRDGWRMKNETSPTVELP
Nature of the test: Endothelial lipase (EL) enzymatic assay, fluorescent substrate A10070 in DMPG vesicles. Type of test: biochemical. The following applies: EL from conditioned media of HT-1080 cells; compound preincubated 30 min at 37° C; read-out: EL IC50. Put shortly:
(§1)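 Substrate A10070 sits in sonicated DMPG vesicles at 0.11 mole fraction. Lipase and compound preincubated 30 min, 37° C, in HEPES pH 8.0 buffer with CaCl2.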

Another test addresses T2, hepatic lipase (HL) (Homo sapiens, UniProt P11150).
T2 construct: made in house; host or cells: COS cells (conditioned medium, partially purified)
T2 sequence (P11150 23-499): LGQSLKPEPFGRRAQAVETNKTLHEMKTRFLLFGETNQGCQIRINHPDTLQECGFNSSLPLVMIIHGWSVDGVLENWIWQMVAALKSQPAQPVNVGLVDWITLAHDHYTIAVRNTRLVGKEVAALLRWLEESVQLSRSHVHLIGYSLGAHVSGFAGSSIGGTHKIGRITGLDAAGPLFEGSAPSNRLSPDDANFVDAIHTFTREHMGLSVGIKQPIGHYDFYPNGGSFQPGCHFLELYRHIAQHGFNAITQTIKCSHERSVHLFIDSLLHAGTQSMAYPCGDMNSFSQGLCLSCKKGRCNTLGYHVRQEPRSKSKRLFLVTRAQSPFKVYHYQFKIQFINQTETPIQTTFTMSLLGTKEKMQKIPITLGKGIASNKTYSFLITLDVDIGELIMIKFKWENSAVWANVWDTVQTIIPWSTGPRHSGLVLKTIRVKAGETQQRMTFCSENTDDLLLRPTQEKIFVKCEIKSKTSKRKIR
Nature of the test: Hepatic lipase (HL) enzymatic assay, fluorescent substrate A10070 in DMPG vesicles. The format is biochemical. The following applies: HL partially purified from conditioned media of COS cells; compound preincubated 30 min at 37° C; read-out: HL IC50. The procedure, abridged: as §1

Regarding `CC1(Cc2nnc(C(c3nc4ccc(-c5cccc(C(=O)N6CC[C@@H](F)C6)c5)cc4s3)S(C)(=O)=O)o2)NC(=O)NC1=O` (stereo partly drawn) [Example 232, 5-({5-[(6-{3-[(3R)-3-fluoropyrrolidine-1-carbonyl]phenyl}-1,3-benzothiazol-2-yl) (methanesulfonyl)methyl]-1,3,4-oxadiazol-2-yl}methyl)-5-methyl-imidazolidine-2,4-dione], the values for the half-inhibitory concentration (IC50) on Endothelial lipase (EL) and at hepatic lipase (HL) were 1 nM and 54 nM, respectively.
With `CS(=O)(=O)C(c1nnc(CNS(N)(=O)=O)o1)c1nc2cc(-c3ccc(F)nc3)ccc2s1` (centres unmarked) [Example 233, N-[(5-{[5-(6-fluoropyridin-3-yl)-1,3-benzothiazol-2-yl] (methanesulfonyl)methyl}-1,3,4-oxadiazol-2-yl)methyl]aminosulfonamide], the IC50 at Endothelial lipase (EL) is 1 nM; at hepatic lipase (HL) it was 18 nM.
For the compound `COCc1ccc(-c2ccc3nc(C(c4nnc(CNS(N)(=O)=O)o4)S(=O)(=O)Cc4cc(C(F)(F)F)cc(C(F)(F)F)c4)sc3c2)cc1` (centres unmarked) [Example 234, N-[(5-{[3,5-bis(trifluoromethyl)phenyl]methanesulfonyl({6-[4-(methoxymethyl)phenyl]-1,3-benzothiazol-2-yl})methyl}-1,3,4-oxadiazol-2-yl)methyl]aminosulfonamide], the IC50 on Endothelial lipase (EL) is 4 nM; at hepatic lipase (HL), 17 nM.
With `COCc1ccc(-c2ccc3nc(C(c4nnc(CNS(N)(=O)=O)o4)S(=O)(=O)Cc4cc(Cl)cc(Cl)c4)sc3c2)cc1` (centres unmarked) [Example 235, N-({5-[(3,5-dichlorophenyl)methanesulfonyl({6-[4-(methoxymethyl)phenyl]-1,3-benzothiazol-2-yl})methyl]-1,3,4-oxadiazol-2-yl}methyl)aminosulfonamide], the half-inhibitory concentration (IC50) stood at 4 nM at Endothelial lipase (EL) and 6 nM on hepatic lipase (HL).
On to `COCc1ccc(-c2ccc3nc(C(c4nnc(CNS(N)(=O)=O)o4)S(=O)(=O)Cc4ccc(C(F)(F)F)cc4)sc3c2)cc1` (centres unmarked) [Example 236, N-{[5-({6-[4-(methoxymethyl)phenyl]-1,3-benzothiazol-2-yl}[4-(trifluoromethyl)phenyl]meth-anesulfonylmethyl)-1,3,4-oxadiazol-2-yl]methyl} aminosulfonamide], for which the IC50 at Endothelial lipase (EL) and on hepatic lipase (HL) was 1 nM each time.
For `COCc1ccc(-c2ccc3nc(C(c4nnc(CNS(N)(=O)=O)o4)S(=O)(=O)Cc4ccc(OC(F)(F)F)cc4)sc3c2)cc1` (centres unmarked) [Example 237, N-{[5-({6-[4-(methoxymethyl)phenyl]-1,3-benzothiazol-2-yl}[4-(trifluoromethoxy)phenyl]methanesulfonylmethyl)-1,3,4-oxadiazol-2-yl]methyl} aminosulfonamide], the IC50 on Endothelial lipase (EL) was determined as 1 nM; at hepatic lipase (HL) it was 2 nM.
With `NS(=O)(=O)NCc1nnc(C(c2nc3ccc(-c4ccc(F)nc4)cc3s2)S(=O)(=O)Cc2ccc(C(F)(F)F)cc2)o1` (centres unmarked) [Example 238, N-[(5-{[6-(6-fluoropyridin-3-yl)-1,3-benzothiazol-2-yl] [4-(trifluoromethyl)phenyl]methanesulfonylmethyl}-1,3,4-oxadiazol-2-yl)methyl]aminosulfonamide], the IC50 is 4 nM at Endothelial lipase (EL) and 18 nM at hepatic lipase (HL).
Consider `NS(=O)(=O)NCc1nnc(C(c2nc3ccc(-c4ccc(F)nc4)cc3s2)S(=O)(=O)Cc2ccc(OC(F)(F)F)cc2)o1` (centres unmarked) [Example 239, N-[(5-{[6-(6-fluoropyridin-3-yl)-1,3-benzothiazol-2-yl] [4-(trifluoromethoxy)phenyl]methanesulfonylmethyl}-1,3,4-oxadiazol-2-yl)methyl] aminosulfonamide], for which the IC50 at Endothelial lipase (EL) was determined as 4 nM; at hepatic lipase (HL) it was 9 nM.
Regarding `COCc1ccc(-c2ccc3nc(C(c4nnc(CNS(N)(=O)=O)o4)S(=O)(=O)Cc4ccccc4F)sc3c2)cc1` (centres unmarked) [Example 240, N-({5-[(2-fluorophenyl)methanesulfonyl ({6-[4-(methoxymethyl)phenyl]-1,3-benzothiazol-2-yl})methyl]-1,3,4-oxadiazol-2-yl}methyl) aminosulfonamide], the IC50 at Endothelial lipase (EL) was 2 nM; at hepatic lipase (HL), 3 nM.
Take `COCc1ccc(-c2ccc3nc(C(c4nnc(CNS(N)(=O)=O)o4)S(=O)(=O)Cc4cccc(F)c4)sc3c2)cc1` (centres unmarked) [Example 241, N-({5-[(3-fluorophenyl)methanesulfonyl({6-[4-(methoxymethyl)phenyl]-1,3-benzothiazol-2-yl})methyl]-1,3,4-oxadiazol-2-yl}methyl)aminosulfonamide]: the half-maximal inhibitory concentration (IC50) on Endothelial lipase (EL) and on hepatic lipase (HL) was 1 nM in each case.
`COCc1ccc(-c2ccc3nc(C(c4nnc(CNS(N)(=O)=O)o4)S(=O)(=O)Cc4ccc(F)cc4)sc3c2)cc1` (centres unmarked) [Example 242, N-({5-[(4-fluorophenyl)methanesulfonyl ({6-[4-(methoxymethyl)phenyl]-1,3-benzothiazol-2-yl})methyl]-1,3,4-oxadiazol-2-yl}methyl) aminosulfonamide]: the half-inhibitory concentration (IC50) at Endothelial lipase (EL) and at hepatic lipase (HL) was 1 nM throughout.
For `CS(=O)(=O)C(c1nnc(CNS(N)(=O)=O)o1)c1nc2cc(-c3ccc(C(=O)N4CCOCC4)cc3)ccc2s1` (centres unmarked) [Example 243, N-({5-[methanesulfonyl({5-[4-(morpholine-4-carbonyl)phenyl]-1,3-benzothiazol-2-yl})methyl]-1,3,4-oxadiazol-2-yl}methyl)aminosulfonamide], the IC50 on Endothelial lipase (EL) came to 5 nM; at hepatic lipase (HL) it was 119 nM.
Taken in the same sequence, the figures for `Cn1ccc(-c2ccc3sc(C(c4nnc(CNS(N)(=O)=O)o4)S(C)(=O)=O)nc3c2)cc1=O` (centres unmarked) [Example 245, N-[(5-{methanesulfonyl[5-(1-methyl-2-oxo-1,2-dihydropyridin-4-yl)-1,3-benzothiazol-2-yl]methyl}-1,3,4-oxadiazol-2-yl)methyl]aminosulfonamide] were 8 nM and 72 nM.
For `CS(=O)(=O)C(c1nnc(CNS(N)(=O)=O)o1)c1nc2cc(-c3ncccn3)ccc2s1` (centres unmarked) [Example 246, N-[(5-{methanesulfonyl[5-(pyrimidin-2-yl)-1,3-benzothiazol-2-yl]methyl}-1,3,4-oxadiazol-2-yl)methyl]aminosulfonamide], the figures for the IC50 at Endothelial lipase (EL) and at hepatic lipase (HL) were 9 nM and 6 nM, respectively.
For `CS(=O)(=O)C(c1nnc(CNS(N)(=O)=O)o1)c1nc2cc(-c3cncnc3)ccc2s1` (centres unmarked) [Example 247, N-[(5-{methanesulfonyl[5-(pyrimidin-5-yl)-1,3-benzothiazol-2-yl]methyl}-1,3,4-oxadiazol-2-yl)methyl]aminosulfonamide], the IC50 stood at 4 nM on Endothelial lipase (EL) and 43 nM on hepatic lipase (HL).
As for `Cc1noc(C)c1-c1ccc2sc(C(c3nnc(CNS(N)(=O)=O)o3)S(C)(=O)=O)nc2c1` (centres unmarked) [Example 248, N-[(5-{[5-(dimethyl-1,2-oxazol-4-yl)-1,3-benzothiazol-2-yl] (methanesulfonyl)methyl}-1,3,4-oxadiazol-2-yl)methyl] aminosulfonamide], the IC50 at Endothelial lipase (EL) is 5 nM; at hepatic lipase (HL) it was 26 nM.
Taken in the same sequence, the figures for `CS(=O)(=O)C(c1nnc(CNS(N)(=O)=O)o1)c1nc2cc(-c3ccccc3)ccc2s1` (centres unmarked) [Example 249, N-({5-[methanesulfonyl(5-phenyl-1,3-benzothiazol-2-yl)methyl]-1,3,4-oxadiazol-2-yl}methyl) aminosulfonamide] were 1 nM and 1 nM.
With `COCCS(=O)(=O)C(c1nnc(CC(=O)NC2CC2)o1)c1nc2ccc(-c3ccc(F)nc3)cc2s1` (centres unmarked) [Example 250, N-cyclopropyl-2-(5-{[6-(6-fluoropyridin-3-yl)-1,3-benzothiazol-2-yl] (2-methoxyethanesulfonyl)methyl}-1,3,4-oxadiazol-2-yl)acetamide], the results for the half-maximal inhibitory concentration (IC50) at Endothelial lipase (EL) and on hepatic lipase (HL) were 194 nM and 306 nM, respectively.
Taken in the same sequence, the figures for `CS(=O)(=O)C(c1nnc(CNS(N)(=O)=O)o1)c1nc2ccc(-c3cccc(C(=O)N4CC(F)(F)C4)c3)cc2s1` (centres unmarked) [Example 251, N-{[5-({6-[3-(3,3-difluoroazetidine-1-carbonyl)phenyl]-1,3-benzothiazol-2-yl} (methanesulfonyl)methyl)-1,3,4-oxadiazol-2-yl]methyl} aminosulfonamide] were 9 nM and 21 nM.

A word on the IC50: it is the midpoint of a concentration-inhibition curve.
